Activity calls are given as the source filed them. The rule behind the calls is not given here.
Experiments:
[1] = target: Mitogen-activated protein kinase 14 (Homo sapiens) (UniProt Q16539); test: Inhibition of p38alpha at 10 uM
BaF3 = test: Inhibition of PDGFR expressed in mouse BA/F3 cells; assay type: cell-based
[2] = target: T1, Ephrin type-B receptor 1 (Homo sapiens) (UniProt P54762); test: Inhibition of EphB1 at 10 uM
T1 sequence (whole entry): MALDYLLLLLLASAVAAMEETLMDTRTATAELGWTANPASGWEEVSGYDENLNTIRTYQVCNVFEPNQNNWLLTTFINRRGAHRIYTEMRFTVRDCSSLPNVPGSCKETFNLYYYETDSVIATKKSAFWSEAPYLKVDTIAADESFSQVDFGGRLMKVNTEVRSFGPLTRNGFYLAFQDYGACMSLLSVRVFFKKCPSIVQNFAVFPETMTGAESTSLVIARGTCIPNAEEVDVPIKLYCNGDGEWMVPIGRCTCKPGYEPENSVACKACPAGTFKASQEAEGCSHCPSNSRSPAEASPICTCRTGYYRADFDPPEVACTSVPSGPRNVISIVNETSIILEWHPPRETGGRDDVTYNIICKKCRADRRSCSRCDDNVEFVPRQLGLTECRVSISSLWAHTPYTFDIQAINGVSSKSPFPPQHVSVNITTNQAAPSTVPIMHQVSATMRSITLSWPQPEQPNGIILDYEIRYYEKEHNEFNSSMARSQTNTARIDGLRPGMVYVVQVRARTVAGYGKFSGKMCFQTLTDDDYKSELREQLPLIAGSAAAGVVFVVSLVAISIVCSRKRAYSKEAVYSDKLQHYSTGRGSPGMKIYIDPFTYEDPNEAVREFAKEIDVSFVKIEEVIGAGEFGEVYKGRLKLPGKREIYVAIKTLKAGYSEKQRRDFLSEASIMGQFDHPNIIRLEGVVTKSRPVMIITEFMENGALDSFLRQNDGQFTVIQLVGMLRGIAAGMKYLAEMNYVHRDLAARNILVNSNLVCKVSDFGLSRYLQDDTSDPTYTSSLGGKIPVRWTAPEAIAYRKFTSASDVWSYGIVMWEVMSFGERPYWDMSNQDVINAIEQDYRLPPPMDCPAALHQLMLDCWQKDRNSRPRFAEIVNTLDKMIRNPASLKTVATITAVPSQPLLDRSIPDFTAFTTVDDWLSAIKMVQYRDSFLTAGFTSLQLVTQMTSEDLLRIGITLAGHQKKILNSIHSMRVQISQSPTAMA

[3] = target: Platelet-derived growth factor receptor alpha (Homo sapiens) (UniProt P16234); test: Inhibition of PDGFRalpha at 10 uM
[4] = target: Ephrin type-A receptor 5 (Homo sapiens) (UniProt P54756); test: Inhibition of EphA5 at 10 uM
[5] = target: Ephrin type-B receptor 3 (Homo sapiens) (UniProt P54753); test: Inhibition of EphB3 at 10 uM
[6] = target: Platelet-derived growth factor receptor beta (Homo sapiens) (UniProt P09619); test: Inhibition of PDGFRbeta at 10 uM
[7] = target: Ephrin type-B receptor 2 (Homo sapiens) (UniProt P29323); test: Inhibition of EphB2 at 10 uM
[8] = target: Mast/stem cell growth factor receptor Kit (Homo sapiens) (UniProt P10721); test: Inhibition of c-kit expressed in mouse BA/F3 cells; assay type: cell-based; details: BaF3
Sequence of Mast/stem cell growth factor receptor Kit (Homo sapiens) (P10721 whole entry, the tested form may be a part): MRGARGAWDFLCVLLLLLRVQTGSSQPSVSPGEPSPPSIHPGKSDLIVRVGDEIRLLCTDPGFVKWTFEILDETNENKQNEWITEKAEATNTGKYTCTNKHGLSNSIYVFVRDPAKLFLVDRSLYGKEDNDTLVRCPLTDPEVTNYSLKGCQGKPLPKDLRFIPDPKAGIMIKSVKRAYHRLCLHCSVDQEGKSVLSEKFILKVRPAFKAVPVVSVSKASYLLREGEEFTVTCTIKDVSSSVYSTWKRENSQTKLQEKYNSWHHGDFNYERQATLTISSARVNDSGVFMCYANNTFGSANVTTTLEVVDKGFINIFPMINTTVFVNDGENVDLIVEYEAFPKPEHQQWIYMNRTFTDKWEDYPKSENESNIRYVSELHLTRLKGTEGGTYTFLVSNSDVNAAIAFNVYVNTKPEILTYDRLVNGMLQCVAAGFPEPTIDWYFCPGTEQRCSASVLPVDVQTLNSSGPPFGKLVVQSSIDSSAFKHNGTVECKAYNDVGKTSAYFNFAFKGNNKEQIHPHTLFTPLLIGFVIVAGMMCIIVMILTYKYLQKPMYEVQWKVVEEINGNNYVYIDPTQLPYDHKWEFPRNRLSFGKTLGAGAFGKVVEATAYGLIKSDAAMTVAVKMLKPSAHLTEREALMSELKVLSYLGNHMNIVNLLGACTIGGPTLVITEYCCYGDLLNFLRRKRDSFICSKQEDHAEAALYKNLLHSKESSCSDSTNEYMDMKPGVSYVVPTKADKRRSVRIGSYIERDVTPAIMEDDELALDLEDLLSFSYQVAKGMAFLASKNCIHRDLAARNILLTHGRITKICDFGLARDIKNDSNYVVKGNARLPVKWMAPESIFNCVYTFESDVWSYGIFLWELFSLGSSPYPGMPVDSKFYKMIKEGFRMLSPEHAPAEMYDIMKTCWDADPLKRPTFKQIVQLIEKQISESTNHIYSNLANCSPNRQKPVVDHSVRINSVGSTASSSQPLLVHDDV

[9] = target: Discoidin domain-containing receptor 2 (Homo sapiens) (UniProt Q16832); test: Inhibition of DDR2 at 10 uM
[10] = target: Tyrosine-protein kinase ABL1 (Homo sapiens) (UniProt P00519); test: Inhibition of Abl expressed in mouse BA/F3 cells; assay type: cell-based; details: BaF3
Sequence of Tyrosine-protein kinase ABL1 (Homo sapiens) (P00519 whole entry): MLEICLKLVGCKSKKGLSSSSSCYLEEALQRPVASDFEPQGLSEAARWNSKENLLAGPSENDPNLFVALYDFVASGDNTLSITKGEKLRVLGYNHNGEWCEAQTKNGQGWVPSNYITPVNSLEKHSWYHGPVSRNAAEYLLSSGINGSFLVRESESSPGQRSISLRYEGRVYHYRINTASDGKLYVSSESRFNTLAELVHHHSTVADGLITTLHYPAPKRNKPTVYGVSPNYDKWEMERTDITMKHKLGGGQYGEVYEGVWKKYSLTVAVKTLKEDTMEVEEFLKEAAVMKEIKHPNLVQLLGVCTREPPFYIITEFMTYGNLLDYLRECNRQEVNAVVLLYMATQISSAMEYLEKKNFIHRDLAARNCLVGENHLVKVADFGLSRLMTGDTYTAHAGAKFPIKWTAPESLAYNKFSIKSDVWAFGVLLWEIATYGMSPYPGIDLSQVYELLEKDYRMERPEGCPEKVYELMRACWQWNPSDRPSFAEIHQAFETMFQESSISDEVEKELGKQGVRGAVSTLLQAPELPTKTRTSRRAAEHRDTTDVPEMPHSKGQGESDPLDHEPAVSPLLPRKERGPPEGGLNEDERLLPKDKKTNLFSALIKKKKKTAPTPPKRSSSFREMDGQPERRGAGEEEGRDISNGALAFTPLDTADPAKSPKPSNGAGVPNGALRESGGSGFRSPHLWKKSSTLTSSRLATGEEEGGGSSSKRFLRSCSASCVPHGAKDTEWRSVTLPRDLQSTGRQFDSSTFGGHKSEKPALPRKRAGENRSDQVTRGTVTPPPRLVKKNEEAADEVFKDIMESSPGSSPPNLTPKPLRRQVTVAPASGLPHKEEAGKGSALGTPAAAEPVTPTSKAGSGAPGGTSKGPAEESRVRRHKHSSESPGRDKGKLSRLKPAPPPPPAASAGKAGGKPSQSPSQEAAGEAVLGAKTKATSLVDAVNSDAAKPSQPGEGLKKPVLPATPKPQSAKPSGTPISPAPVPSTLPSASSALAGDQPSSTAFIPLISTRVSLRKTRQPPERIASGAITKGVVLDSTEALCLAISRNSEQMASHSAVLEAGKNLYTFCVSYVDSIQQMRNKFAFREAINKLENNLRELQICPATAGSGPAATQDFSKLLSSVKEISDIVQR

[11] = target: Tyrosine-protein kinase Lck (Homo sapiens) (UniProt P06239); test: Inhibition of Lck at 10 uM
[12] = target: Bcr/Abl fusion protein (Homo sapiens) (UniProt P00519+P11274); test: Inhibition of Bcr-Abl expressed in mouse BA/F3 cells; assay type: cell-based; details: BaF3
[13] = target: Macrophage colony-stimulating factor 1 receptor (Homo sapiens) (UniProt P07333); test: Inhibition of CSF1R at 10 uM
[14] = target: Mitogen-activated protein kinase 11 (Homo sapiens) (UniProt Q15759); test: Inhibition of p38beta at 10 uM
[15] = target: Epithelial discoidin domain-containing receptor 1 (Homo sapiens) (UniProt Q08345); test: Inhibition of DDR1 at 10 uM
[16] = target: Ephrin type-A receptor 8 (Homo sapiens) (UniProt P29322); test: Inhibition of EphA8 at 10 uM
Sequence of Ephrin type-A receptor 8 (Homo sapiens) (P29322 whole entry): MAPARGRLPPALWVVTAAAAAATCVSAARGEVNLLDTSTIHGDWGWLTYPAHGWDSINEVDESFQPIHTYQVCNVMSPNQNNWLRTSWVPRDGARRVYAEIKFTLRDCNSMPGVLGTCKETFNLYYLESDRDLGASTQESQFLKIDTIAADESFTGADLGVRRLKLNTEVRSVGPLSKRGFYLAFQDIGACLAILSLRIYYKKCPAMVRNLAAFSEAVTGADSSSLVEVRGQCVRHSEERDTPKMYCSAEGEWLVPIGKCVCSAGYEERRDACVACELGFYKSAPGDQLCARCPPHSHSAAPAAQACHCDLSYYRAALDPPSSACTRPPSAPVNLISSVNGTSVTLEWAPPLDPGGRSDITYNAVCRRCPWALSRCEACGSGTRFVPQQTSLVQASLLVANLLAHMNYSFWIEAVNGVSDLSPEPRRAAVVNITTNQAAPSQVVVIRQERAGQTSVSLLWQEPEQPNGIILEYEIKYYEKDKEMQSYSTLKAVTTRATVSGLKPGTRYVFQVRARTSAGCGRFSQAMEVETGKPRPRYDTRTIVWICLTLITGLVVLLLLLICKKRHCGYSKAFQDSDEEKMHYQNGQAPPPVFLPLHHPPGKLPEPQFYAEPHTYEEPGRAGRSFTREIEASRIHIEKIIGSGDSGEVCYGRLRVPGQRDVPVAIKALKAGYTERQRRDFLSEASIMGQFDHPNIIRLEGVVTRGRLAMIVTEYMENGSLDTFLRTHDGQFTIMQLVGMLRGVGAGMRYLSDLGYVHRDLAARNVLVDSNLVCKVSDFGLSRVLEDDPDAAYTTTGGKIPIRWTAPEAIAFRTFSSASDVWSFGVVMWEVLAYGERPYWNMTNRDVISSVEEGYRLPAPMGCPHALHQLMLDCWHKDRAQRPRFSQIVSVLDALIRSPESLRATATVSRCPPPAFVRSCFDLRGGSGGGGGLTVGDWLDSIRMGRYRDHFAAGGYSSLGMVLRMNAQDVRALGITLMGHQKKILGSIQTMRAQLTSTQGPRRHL

[17] = target: Tyrosine-protein kinase FRK (Homo sapiens) (UniProt P42685); test: Inhibition of Frk at 10 uM
[18] = target: Mast/stem cell growth factor receptor Kit (Homo sapiens) (UniProt P10721); test: Inhibition of Kit at 10 uM
[19] = target: RAF proto-oncogene serine/threonine-protein kinase (Homo sapiens) (UniProt P04049); test: Inhibition of RAF1 at 10 uM
[20] = target: Ephrin type-A receptor 2 (Homo sapiens) (UniProt P29317); test: Inhibition of EphA2 at 10 uM
[21] = target: Serine/threonine-protein kinase B-raf (Homo sapiens) (UniProt P15056); test: Inhibition of b-Raf at 100 uM
Sequence of Serine/threonine-protein kinase B-raf (Homo sapiens) (P15056 whole entry, the tested form may be a part): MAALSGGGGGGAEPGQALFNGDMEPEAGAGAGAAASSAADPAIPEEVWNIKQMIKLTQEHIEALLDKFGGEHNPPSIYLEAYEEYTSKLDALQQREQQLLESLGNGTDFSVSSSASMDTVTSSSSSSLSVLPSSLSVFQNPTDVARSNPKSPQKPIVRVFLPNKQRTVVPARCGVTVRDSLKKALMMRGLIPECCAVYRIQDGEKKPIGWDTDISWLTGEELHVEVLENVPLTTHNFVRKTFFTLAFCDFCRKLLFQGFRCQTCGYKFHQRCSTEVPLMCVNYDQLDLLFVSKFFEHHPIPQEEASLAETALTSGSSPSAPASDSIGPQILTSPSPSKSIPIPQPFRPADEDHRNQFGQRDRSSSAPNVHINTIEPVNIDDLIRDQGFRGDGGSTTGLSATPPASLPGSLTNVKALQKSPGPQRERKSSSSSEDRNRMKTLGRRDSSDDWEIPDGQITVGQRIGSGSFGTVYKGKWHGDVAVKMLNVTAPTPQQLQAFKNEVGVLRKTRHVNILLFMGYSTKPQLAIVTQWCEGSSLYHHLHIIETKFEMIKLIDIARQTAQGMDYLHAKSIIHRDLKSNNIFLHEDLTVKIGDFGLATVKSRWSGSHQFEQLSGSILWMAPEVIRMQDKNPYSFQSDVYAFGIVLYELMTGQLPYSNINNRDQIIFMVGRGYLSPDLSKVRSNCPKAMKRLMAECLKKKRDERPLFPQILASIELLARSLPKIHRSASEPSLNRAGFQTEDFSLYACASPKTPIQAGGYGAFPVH

[22] = target: T2, Ephrin type-A receptor 6 (Homo sapiens) (UniProt Q9UF33); test: Inhibition of EphA6 at 10 uM
T2 sequence (whole entry): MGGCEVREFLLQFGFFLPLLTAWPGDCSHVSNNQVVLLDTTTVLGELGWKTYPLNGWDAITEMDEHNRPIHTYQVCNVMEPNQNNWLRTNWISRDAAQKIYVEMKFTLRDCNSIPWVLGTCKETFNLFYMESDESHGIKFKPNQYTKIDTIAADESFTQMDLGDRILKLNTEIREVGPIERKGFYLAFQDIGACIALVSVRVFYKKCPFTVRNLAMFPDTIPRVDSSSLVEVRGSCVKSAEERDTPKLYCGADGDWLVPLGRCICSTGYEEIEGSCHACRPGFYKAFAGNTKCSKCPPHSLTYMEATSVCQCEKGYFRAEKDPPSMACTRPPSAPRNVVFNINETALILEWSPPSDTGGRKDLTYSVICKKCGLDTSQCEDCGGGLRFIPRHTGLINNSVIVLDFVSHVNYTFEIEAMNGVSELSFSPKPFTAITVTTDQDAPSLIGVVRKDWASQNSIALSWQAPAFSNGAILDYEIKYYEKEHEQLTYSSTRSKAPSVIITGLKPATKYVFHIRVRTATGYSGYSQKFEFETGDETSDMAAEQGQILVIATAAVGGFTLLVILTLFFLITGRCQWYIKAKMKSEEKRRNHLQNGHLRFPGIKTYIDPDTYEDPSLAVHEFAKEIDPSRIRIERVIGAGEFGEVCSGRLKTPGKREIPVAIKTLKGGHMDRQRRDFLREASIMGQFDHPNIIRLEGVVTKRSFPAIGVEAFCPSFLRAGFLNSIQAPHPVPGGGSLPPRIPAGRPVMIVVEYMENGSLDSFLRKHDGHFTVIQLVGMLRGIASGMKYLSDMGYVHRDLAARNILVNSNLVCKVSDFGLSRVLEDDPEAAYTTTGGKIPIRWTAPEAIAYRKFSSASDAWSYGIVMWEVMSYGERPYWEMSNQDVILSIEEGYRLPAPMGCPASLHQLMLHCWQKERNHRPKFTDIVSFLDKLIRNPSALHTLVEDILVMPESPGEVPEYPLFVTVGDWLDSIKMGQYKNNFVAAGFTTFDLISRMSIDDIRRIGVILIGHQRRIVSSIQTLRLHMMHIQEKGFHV

[23] = target: Ephrin type-A receptor 7 (Homo sapiens) (UniProt Q15375); test: Inhibition of EphA7 at 10 uM
Sequence of Ephrin type-A receptor 7 (Homo sapiens) (Q15375 28-998 limits assumed): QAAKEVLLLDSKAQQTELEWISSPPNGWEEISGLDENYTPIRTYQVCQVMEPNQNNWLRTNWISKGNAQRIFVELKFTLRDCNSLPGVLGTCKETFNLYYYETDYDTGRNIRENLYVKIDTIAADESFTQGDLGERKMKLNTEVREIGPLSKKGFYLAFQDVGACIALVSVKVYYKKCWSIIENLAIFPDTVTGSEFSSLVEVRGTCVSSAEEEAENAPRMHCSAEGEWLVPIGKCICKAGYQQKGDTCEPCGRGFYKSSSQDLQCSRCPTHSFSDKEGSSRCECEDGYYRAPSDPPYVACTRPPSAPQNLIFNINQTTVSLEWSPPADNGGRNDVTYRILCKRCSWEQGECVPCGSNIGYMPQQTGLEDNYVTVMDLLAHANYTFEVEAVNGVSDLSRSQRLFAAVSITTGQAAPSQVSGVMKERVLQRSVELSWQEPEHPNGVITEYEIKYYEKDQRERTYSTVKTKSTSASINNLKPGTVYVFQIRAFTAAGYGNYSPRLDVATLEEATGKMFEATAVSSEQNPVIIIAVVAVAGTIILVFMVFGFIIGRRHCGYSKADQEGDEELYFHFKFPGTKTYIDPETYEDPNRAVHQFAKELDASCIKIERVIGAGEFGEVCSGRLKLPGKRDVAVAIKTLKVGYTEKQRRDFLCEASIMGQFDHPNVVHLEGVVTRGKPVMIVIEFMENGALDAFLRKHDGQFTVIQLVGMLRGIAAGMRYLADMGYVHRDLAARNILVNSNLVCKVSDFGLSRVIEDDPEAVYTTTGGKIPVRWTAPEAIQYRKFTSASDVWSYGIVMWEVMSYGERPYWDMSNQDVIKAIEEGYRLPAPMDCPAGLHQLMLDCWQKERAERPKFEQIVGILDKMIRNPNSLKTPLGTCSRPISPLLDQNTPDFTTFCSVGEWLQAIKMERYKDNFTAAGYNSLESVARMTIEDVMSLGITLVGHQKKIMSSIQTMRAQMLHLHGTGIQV

[24] = target: Fibroblast growth factor receptor 4 (Homo sapiens) (UniProt P22455); test: Inhibition of FGFR4 expressed in mouse BA/F3 cells; assay type: cell-based; details: BaF3
[25] = target: Fibroblast growth factor receptor 3 (Homo sapiens) (UniProt P22607); test: Inhibition of FGFR3 expressed in mouse BA/F3 cells; assay type: cell-based; details: BaF3
[26] = target: Fibroblast growth factor receptor 2 (Homo sapiens) (UniProt P21802); test: Inhibition of FGFR2 expressed in mouse BA/F3 cells; assay type: cell-based; details: BaF3
[27] = target: Serine/threonine-protein kinase B-raf (Homo sapiens) (UniProt P15056); test: Inhibition of Tel fused b-Raf expressed in mouse BA/F3 cells; assay type: cell-based; details: BaF3

Row | Structure (SMILES) | inhibition [2] | inhibition [8] | inhibition [10] | inhibition [12] | inhibition [22] | inhibition [23] | inhibition [27] | inhibition (BaF3) | also measured
1 | CCN1CCN(Cc2ccc(NC(=O)c3ccc(C)c(NC(=O)c4cncc(-c5cccs5)c4)c3)cc2C(F)(F)F)CC1 | Active | Active | Active | Active | – | – | – | Active | inhibition [1]: Active; inhibition [3]: Active; inhibition [4]: Active; inhibition [5]: Active; inhibition [6]: Active; inhibition [7]: Active; inhibition [9]: Active; inhibition [11]: Active; inhibition [13]: Active; inhibition [14]: Active; inhibition [15]: Active; inhibition [16]: Active; inhibition [17]: Active; inhibition [18]: Active; inhibition [19]: Active; inhibition [20]: Active; inhibition [21]: Active
2 | Cc1ccc(C(=O)Nc2cccc(C(F)(F)F)c2)cc1Nc1[nH]cnc2ncnc1-2 | – | Active | Active | – | – | – | – | Active | inhibition [24]: Active; inhibition [25]: Active; inhibition [26]: Active
3 | Cc1ccc(C(=O)Nc2cccc(C(F)(F)F)c2)cc1Nc1cncc(C(N)=O)c1 | inactive | – | – | – | inactive | inactive | inactive | – | –

Further lines, with some results ahead:

Row | inhibition [2] | inhibition [8] | inhibition [10] | inhibition [12] | inhibition [22] | inhibition [23] | inhibition [27] | Structure (SMILES) | inhibition (BaF3) | also measured
4 | inactive | Active | Active | Active | inactive | inactive | – | Cc1ccc(C(=O)Nc2cccc(C(F)(F)F)c2)cc1Nc1ccc2occc(=O)c2c1 | Active | –
5 | inactive | – | – | – | inactive | inactive | inactive | Cc1cn(-c2cc(NC(=O)c3ccc(C)c(NC(=O)c4ccno4)c3)cc(C(F)(F)F)c2)cn1 | – | –
